According to patent publication US7671258B2, “Surfactant peptide nanostructures, and uses thereof” (Massachusetts Institute of Technology, priority 2001, dated 2010):
Residues, ends and D or L forms follow the SMILES beside them.

Test: Cryo-transmission electron microscopy of aqueous peptide solutions (self-assembly)
Format: physicochemical
Conditions: Cryo-TEM, aqueous solution 5 mg/ml, pH 7
Protocol: Cryo-transmission electron microscopy experiments were performed on aqueous solution of the different peptides at a concentration of 5 mg/ml. In order to solubilize these peptides in water, it was necessary to deprotonate the carboxylic groups by adjusting the pH with a solution of sodium hydroxide 0.1N. The oligopeptides investigated start to be soluble in water at pH 5 to 6, depending on the amino acid sequence. All the experiments presented in this work were carried out using peptide solutions at pH 7. […] The cylindrical assemblers present a three-dimensional transient network somehow similar to flexible polymers in their semidilute or concentrated solutions^22. It should be pointed out that, in the electron micrographs, only a two-dimensional projection of the peptides nanotubes could be imaged. The network below and above a defined point in the space could be relatively distant in three dimensions, while appearing superimposed in the two-dimensional projection. […] These self-assemblies have high axial ratios and extend in length to several tens of micrometers. Additionally, one can easily identify many three-fold junctions or branchings connecting the nanotubes and thus forming the final network. […] Alternatively, two nanotubes could fuse together to form a tentative 4-arm branch. It has been shown that this kind of branching is energetically unstable and, thus, those observed in FIG. 3 are most likely due to the 2-D representation of a spatial network.
In fact, one can easily recognize nanotubes of about 50 nm diameter linked by an increased numbers of three-fold junction. As a result, the branches are more abundant than those observed in the samples VVVVVVD (V6D) (SEQ ID NO: 36), […] (SEQ ID NO: 38) and AAAAAAD (A6D) (SEQ ID NO: 37). They have also a smaller axial ratio and a much smaller average diameter of about 10 to 15 nm. […] (SEQ ID NO: 39) is the most hydrophobic compound with the tail constituted of six leucines. […] These molecular assemblies are very similar to threadlike micellar systems made from traditional amphiphilic molecules such as cetyltrimethylammonium bromide (CTAB)^29-30. It should be noted that a large number of vesicle-like spherical assemblies also appear in the TEM micrograph.
Cryo-TEM micrograph at high resolution provides a detailed structure of the peptide nanotubes formed by AAAAAAD (SEQ ID NO: 35) (see FIG. 4). […] Additionally, helical pitches between 150 and 200 nm, depending on the nanotubes diameter, were also observed. Similar results have been documented with hollow cylinders formed of bilayer membrane of diacetylenic lipids^31. Theories based on molecular chirality have been developed to explain the presence of helical markings that wind around the cylinders^32.

| Structure (SMILES) | nanotube diameter | morphology of the self-assemblies | morphology of the self-assemblies (listed as AAAAAAD) |
| --- | --- | --- | --- |
| CC(=O)N[C@@H](C)C(=O)N[C@@H](C)C(=O)N[C@@H](C)C(=O)N[C@@H](C)C(=O)N[C@@H](C)C(=O)N[C@@H](C)C(=O)N[C@@H](CC(=O)O)C(=O)N[C@@H](CC(=O)O)C(=O)O [A6D2, [Acetyl]-AAAAAADD-CO2] (Ac-AAAAAADD-OH) | about 50 nm | – | – |
| CC(=O)N[C@@H](C)C(=O)N[C@@H](C)C(=O)N[C@@H](C)C(=O)N[C@@H](C)C(=O)N[C@@H](C)C(=O)N[C@@H](C)C(=O)N[C@@H](CC(=O)O)C(=O)O [A6D, [Acetyl]-AAAAAAD-CO2] (Ac-AAAAAAD-OH) | – | cylindrical morphologies | hollow tubular structures |
| CC(=O)N[C@@H](CC(C)C)C(=O)N[C@@H](CC(C)C)C(=O)N[C@@H](CC(C)C)C(=O)N[C@@H](CC(C)C)C(=O)N[C@@H](CC(C)C)C(=O)N[C@@H](CC(C)C)C(=O)N[C@@H](CC(=O)O)C(=O)N[C@@H](CC(=O)O)C(=O)O [L6D2, [Acetyl]-LLLLLLDD-CO2] (Ac-LLLLLLDD-OH) | – | does not exhibit any nanotubular structures but rather a network of entangled rodlike micelles | – |

Second part, the compound after the results:

| nanotube diameter | morphology of the self-assemblies | morphology of the self-assemblies (listed as AAAAAAD) | Structure (SMILES) |
| --- | --- | --- | --- |
| – | cylindrical morphologies | – | CC(=O)N[C@H](C(=O)N[C@H](C(=O)N[C@H](C(=O)N[C@H](C(=O)N[C@H](C(=O)N[C@H](C(=O)N[C@@H](CC(=O)O)C(=O)N[C@@H](CC(=O)O)C(=O)O)C(C)C)C(C)C)C(C)C)C(C)C)C(C)C)C(C)C [V6D2, [Acetyl]-VVVVVVDD-CO2] (Ac-VVVVVVDD-OH) |
| – | cylindrical morphologies | – | CC(=O)N[C@H](C(=O)N[C@H](C(=O)N[C@H](C(=O)N[C@H](C(=O)N[C@H](C(=O)N[C@H](C(=O)N[C@@H](CC(=O)O)C(=O)O)C(C)C)C(C)C)C(C)C)C(C)C)C(C)C)C(C)C [V6D, [Acetyl]-VVVVVVD-CO2] (Ac-VVVVVVD-OH) |
